One may read the IC50 as the point on the concentration scale where inhibition reaches its midpoint. For orientation: inhibition means the change of the read-out against control, counted positive when it falls.

Some results are limits rather than exact numbers.

For the assay, the target named is T1, human Edg-1(S1P1) (Homo sapiens, UniProt P21453).
T1 construct: expressed in transfected cells; host or cells: HEK-293
Briefly: S1P1 Binding Test ([33P]-S1P, membrane fraction of HEK-293 cell line carrying the human Edg-1(S1P1) gene). The settings on record: [33P]-S1P 0.1 nM; for IC50: membrane binding test at various concentrations, read-out: IC50 value, Edg-1(S1P1) binding inhibition; for inhibition at 10 µM: compound at 10 μM, 30° C., 1 hour, read-out: inhibition rate of Edg-1(S1P1) binding. The procedure:
The membrane fraction of a HEK-293 cell line carrying the human Edg-1(S1P1) gene was used to study the compounds of the present invention for their inhibitory effect on Edg-1(S1P1) binding, as described in Science. […] To obtain the membrane fraction, treatment with solubilizing buffer (1 mM Tris/HCl, pH 7.2) for 10 minutes on ice was performed, followed by centrifugation at 1000×g for 5 minutes to remove an insoluble fraction and then at 40000×g for 30 minutes at 4° C. The resulting membrane fraction was dissolved in binding buffer (20 mM Tris-HCl, pH 7.4, 100 mM NaCl, 15 mM NaF, 2 mM deoxypyridoxine, 4 mg/mL fatty acid-free BSA), followed by addition of binding buffer containing [^33P]-S1P (ARC, final concentration: 0.1 nM) and DMSO solution of a test compound (final concentration of the compound: 10^−5 M, final concentration of DMSO: 0.1%). After stirring, the reaction solution was incubated at 30° C. for 1 hour. The membrane fraction was collected onto a unifilter-96 GF/C filter (Perkin Elmer) using a harvester and washed four times with binding buffer, followed by drying the filter. After addition of 25 μL Microscint 0 (Perkin Elmer), radioactivity was measured with a Top Count NXT (Packard) to calculate amount (A), i.e., the amount of [^33P]-S1P binding to the membrane fraction in the presence of the compound.
The same procedure was performed in the absence of any test compound to calculate amount (B), i.e., the amount of [^33P]-S1P binding. Moreover, the same procedure was also performed with HEK-293 cells carrying no Edg-1(S1P1) gene in the absence of any test compound to calculate amount (C), i.e., the amount of background [^33P]-S1P binding.
The inhibition rate of Edg-1(S1P1) binding was calculated for each compound by the following equation. Inhibition rate (%)=[1−(A−C)/(B−C)]×100
Moreover, the activity of each test compound was calculated as a value (IC50 value) showing 50% of the radioactivity obtained in the absence of any test compound. Namely, the above membrane system binding test was performed in the presence of a test compound at various concentrations to calculate an IC50 value according to the dose-dependent inhibition curve analyzed with data analysis software, Origin (Lightstone Corp., Japan).

T1 sequence (P21453 whole entry): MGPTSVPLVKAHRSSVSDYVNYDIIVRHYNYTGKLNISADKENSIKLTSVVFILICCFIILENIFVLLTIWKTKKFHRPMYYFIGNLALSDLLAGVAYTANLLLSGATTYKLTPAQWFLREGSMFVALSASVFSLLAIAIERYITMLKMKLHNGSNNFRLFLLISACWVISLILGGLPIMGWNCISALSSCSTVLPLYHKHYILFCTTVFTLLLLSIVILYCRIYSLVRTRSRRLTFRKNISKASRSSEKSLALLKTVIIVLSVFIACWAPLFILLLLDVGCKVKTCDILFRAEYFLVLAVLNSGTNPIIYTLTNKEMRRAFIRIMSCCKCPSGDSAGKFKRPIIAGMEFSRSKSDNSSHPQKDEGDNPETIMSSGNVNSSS

Regarding “5-Chloro-naphthalene-2-sulfonic acid (1-{3-ethyl-4-[3-(4-methyl-piperazin-1-yl)-phenoxy]-pyridin-2-yl}-ethyl)-amide [Compound 4]”, the IC50 is 121 nM. On to `CCc1c(C(C)NS(=O)(=O)c2ccc3c(Cl)cccc3c2)ccnc1Sc1cccc(N2CCN(C)CC2)c1` (single isomer, unassigned) [Compound 61], for which the inhibition at 10 µM is at least 3% and the IC50 was 33 nM. Regarding `CCc1c(Oc2ccc(C)cc2)nc(C)nc1C(C)NS(=O)(=O)c1ccc(Cl)c(Cl)c1` (stereo not drawn) [Compound 1], the inhibition at 10 µM was at least 3%. Same read-out and setting: next, `CCc1c(Oc2ccc(C)cc2)nc(C)nc1C(C)NS(=O)(=O)c1ccc2c(Cl)cccc2c1` (stereo not drawn) [Compound 2]: at least 3%. Turning to `CCc1c(C(C)NS(=O)(=O)c2ccc(Cl)c(Cl)c2)ccnc1Oc1cccc(N2CCN(C)CC2)c1` (stereo not drawn) [Compound 3, 3,4-Dichloro-N-(1-{3-ethyl-2-[3-(4-methyl-piperazin-1-yl)-phenoxy]-pyridin-4-yl}-ethyl)-benzenesulfonamide], the inhibition at 10 µM was at least 3% and the IC50 stood at 107 nM. `CCc1c(Oc2cccc(N3CCN(C)CC3)c2)ccnc1C(C)NS(=O)(=O)c1ccc(Cl)c(Cl)c1` (stereo not drawn) [Compound 5]: the inhibition at 10 µM is at least 3%.

Consider `Cc1c(C(C)NS(=O)(=O)c2ccc(Cl)c(Cl)c2)ccnc1Oc1cccc(N2CCN(C)CC2)c1` (stereo not drawn) [Compound 6], for which the inhibition at 10 µM was at least 3%.

As to `Cc1c(C(C)NS(=O)(=O)c2ccc3c(Cl)cccc3c2)ccnc1Oc1cccc(N2CCN(C)CC2)c1` (stereo not drawn) [Compound 7], the inhibition at 10 µM is at least 3% and the IC50 was at most 200 nM. `CC(NS(=O)(=O)c1ccc(Cl)c(Cl)c1)c1ccnc(Oc2cccc(N3CCN(C)CC3)c2)c1` (stereo not drawn) [Compound 8]: the inhibition at 10 µM was at least 3%.

For `CC(NS(=O)(=O)c1ccc2c(Cl)cccc2c1)c1ccnc(Oc2cccc(N3CCN(C)CC3)c2)c1` (stereo not drawn) [Compound 9], the inhibition at 10 µM is at least 3%. Regarding `CCCc1c(C(C)NS(=O)(=O)c2ccc(Cl)c(Cl)c2)ccnc1Oc1cccc(N2CCN(C)CC2)c1` (stereo not drawn) [Compound 10], the inhibition at 10 µM is at least 3%.

For `CCCc1c(C(C)NS(=O)(=O)c2ccc3c(Cl)cccc3c2)ccnc1Oc1cccc(N2CCN(C)CC2)c1` (stereo not drawn) [Compound 11], the inhibition at 10 µM was at least 3% and the IC50 is at most 200 nM. On to `CCc1c(C(CC)NS(=O)(=O)c2ccc(Cl)c(Cl)c2)ccnc1Oc1cccc(N2CCN(C)CC2)c1` (stereo not drawn) [Compound 12], for which the inhibition at 10 µM is at least 3%. For the compound `CCc1c(C(CC)NS(=O)(=O)c2ccc3c(Cl)cccc3c2)ccnc1Oc1cccc(N2CCN(C)CC2)c1` (stereo not drawn) [Compound 13], the inhibition at 10 µM was at least 3% and the IC50 came out at 47 nM. On to `CCc1c(CNS(=O)(=O)c2ccc(Cl)c(Cl)c2)ccnc1Oc1cccc(N2CCN(C)CC2)c1` [Compound 14], for which the inhibition at 10 µM was at least 3%. With `CCc1c(CNS(=O)(=O)c2ccc3c(Cl)cccc3c2)ccnc1Oc1cccc(N2CCN(C)CC2)c1` [Compound 15], the inhibition at 10 µM is at least 3%. The same measure, in the same setting: next, `CCc1c(C(C)NS(=O)(=O)c2ccc(Cl)c(Cl)c2)ccnc1Oc1ccc(C)cc1` (stereo not drawn) [Compound 16]: at least 3%; `CCc1c(C(C)NS(=O)(=O)c2ccc(Cl)c(Cl)c2)ccnc1Oc1ccc(OC)cc1` (stereo not drawn) [Compound 17]: at least 3%; `CCc1c(C(C)NS(=O)(=O)c2ccc(Cl)c(Cl)c2)ccnc1Oc1ccc(Cl)cc1` (stereo not drawn) [Compound 18]: at least 3%. As for `CCc1c(C(C)NS(=O)(=O)c2ccc(Cl)c(Cl)c2)ccnc1Oc1cccc(N2CCOCC2)c1` (stereo not drawn) [Compound 19], the inhibition at 10 µM is at least 3% and the IC50 came out at 66 nM. As to `CCc1c(C(C)NS(=O)(=O)c2ccc(Cl)c(Cl)c2)ccnc1Oc1ccc2ccncc2c1` (stereo not drawn) [Compound 20], the inhibition at 10 µM was at least 3%. In the case of `CCc1c(C(C)NS(=O)(=O)c2ccc(Cl)c(Cl)c2)ccnc1Oc1ccc2ccccc2c1` (stereo not drawn) [Compound 21], the inhibition at 10 µM was at least 3%.

For the compound `CCc1c(C(C)NS(=O)(=O)c2ccc(Cl)c(Cl)c2)ccnc1Oc1cccc(N(C)C)c1` (stereo not drawn) [Compound 22], the inhibition at 10 µM was at least 3% and the IC50 was at most 200 nM. For `CCc1c(C(C)NS(=O)(=O)c2ccc(Cl)c(Cl)c2)ccnc1OC` (stereo not drawn) [Compound 23], the inhibition at 10 µM was at least 3%.

`CCc1c(C(C)NS(=O)(=O)c2ccc(Cl)c(Cl)c2)ccnc1OCC(F)(F)F` (stereo not drawn) [Compound 24]: the inhibition at 10 µM was at least 3%. On the same count and under the same terms, the result for `CCc1c(C(C)NS(=O)(=O)c2ccc(Cl)c(Cl)c2)ccnc1OCc1ccccc1` (stereo not drawn) [Compound 25] reads at least 3%; that for `CCc1c(C(C)NS(=O)(=O)c2ccc(Cl)c(Cl)c2)ccnc1OC(C)C` (stereo not drawn) [Compound 26, 3,4-Dichloro-N-[1-(2-isopropoxy-3-ethyl-pyridin-4-yl)-ethyl]-benzenesulfonamide], at least 3%. For `CCc1c(C(C)NS(=O)(=O)c2ccc3c(Cl)cccc3c2)ccnc1Oc1cccc(N2CCOCC2)c1` (stereo not drawn) [Compound 27, 5-Chloronaphthalene-2-sulfonic acid {1-[3-ethyl-2-(3-morpholin-4-yl-phenoxy)-pyridin-4-yl]-ethyl}-amide], the inhibition at 10 µM was at least 3% and the IC50 was determined as 51 nM.

`CCc1c([C@@H](C)NS(=O)(=O)c2ccc(Cl)c(Cl)c2)ccnc1Oc1cccc(N2CCN(C)CC2)c1` [Compound 28, (R)-3,4-Dichloro-N-(1-{3-ethyl-2-[3-(4-methyl-piperazin-1-yl)-phenoxy]-pyridin-4-yl}-ethyl)-benzenesulfonamide]: the inhibition at 10 µM was at least 3% and the half-maximal inhibitory concentration (IC50) came out at 49 nM.

For `CCc1c([C@H](C)NS(=O)(=O)c2ccc(Cl)c(Cl)c2)ccnc1Oc1cccc(N2CCN(C)CC2)c1` [Compound 29, (S)-3,4-Dichloro-N-(1-{3-ethyl-2-[3-(4-methyl-piperazin-1-yl)-phenoxy]-pyridin-4-yl}-ethyl)-benzenesulfonamide], the inhibition at 10 µM is at least 3%.

In the case of `CCc1c(C(C)NS(=O)(=O)c2ccc(Cl)c(Cl)c2)ccnc1OC1CCC1` (stereo not drawn) [Compound 30], the inhibition at 10 µM was at least 3%. As for `CCc1c(C(C)NS(=O)(=O)c2ccc3c(Cl)cccc3c2)ccnc1Oc1cccc(N2CCN(C)CC2)c1` (stereo not drawn) [Compound 31], the inhibition at 10 µM is at least 3% and the IC50 stood at 35 nM. Turning to `CCc1c(C(C)NS(=O)(=O)c2ccccc2)ccnc1Oc1cccc(N2CCOCC2)c1` (stereo not drawn) [Compound 32], the inhibition at 10 µM was at least 3%. The same measure, in the same setting: next, `CCc1c(C(C)NS(=O)(=O)c2ccccc2C)ccnc1Oc1cccc(N2CCOCC2)c1` (stereo not drawn) [Compound 33]: at least 3%; `CCc1c(C(C)NS(=O)(=O)c2cccc(C)c2)ccnc1Oc1cccc(N2CCOCC2)c1` (stereo not drawn) [Compound 34]: at least 3%; `CCc1ccc(S(=O)(=O)NC(C)c2ccnc(Oc3cccc(N4CCOCC4)c3)c2CC)cc1` (stereo not drawn) [Compound 35]: at least 3%. In the case of `CCc1c(C(C)NS(=O)(=O)c2ccc(OC)cc2)ccnc1Oc1cccc(N2CCOCC2)c1` (stereo not drawn) [Compound 36], the inhibition at 10 µM is at least 3%. For `CCc1c(C(C)NS(=O)(=O)c2ccc(C(F)(F)F)cc2)ccnc1Oc1cccc(N2CCOCC2)c1` (stereo not drawn) [Compound 37], the inhibition at 10 µM was at least 3%. For the compound `CCc1c(C(C)NS(=O)(=O)c2ccc(OC(F)(F)F)cc2)ccnc1Oc1cccc(N2CCOCC2)c1` (stereo not drawn) [Compound 38], the inhibition at 10 µM is at least 3%.

As to `CCc1c(C(C)NS(=O)(=O)c2ccc([N+](=O)[O-])cc2)ccnc1Oc1cccc(N2CCOCC2)c1` (stereo not drawn) [Compound 39], the inhibition at 10 µM is at least 3%. As to `CCc1c(C(C)NS(=O)(=O)c2ccc(C#N)cc2)ccnc1Oc1cccc(N2CCOCC2)c1` (stereo not drawn) [Compound 40], the inhibition at 10 µM is at least 3%.

On to `CCc1c(C(C)NS(=O)(=O)c2ccc(Cl)cc2)ccnc1Oc1cccc(N2CCOCC2)c1` (stereo not drawn) [Compound 41], for which the inhibition at 10 µM was at least 3%. Same read-out and setting: the result for `CCc1c(C(C)NS(=O)(=O)c2cccc(Br)c2)ccnc1Oc1cccc(N2CCOCC2)c1` (stereo not drawn) [Compound 42] reads at least 3%; that for `CCc1c(C(C)NS(=O)(=O)c2ccccc2F)ccnc1Oc1cccc(N2CCOCC2)c1` (stereo not drawn) [Compound 43], at least 3%; that for `CCc1c(C(C)NS(=O)(=O)c2ccc(C(C)=O)cc2)ccnc1Oc1cccc(N2CCOCC2)c1` (stereo not drawn) [Compound 44], at least 3%. Turning to `CCc1c(C(C)NS(=O)(=O)c2ccc(F)c(Cl)c2)ccnc1Oc1cccc(N2CCOCC2)c1` (stereo not drawn) [Compound 45], the inhibition at 10 µM is at least 3%. Still for that read-out and setting: the result for `CCc1c(C(C)NS(=O)(=O)c2ccc(C)c(Cl)c2)ccnc1Oc1cccc(N2CCOCC2)c1` (stereo not drawn) [Compound 46] reads at least 3%.
